According to patent US6818621B2, “Osteopontin-derived chemotactic and inhibitory agents and uses therefor” (Children's Medical Center Corporation, priority 1999, dated 2004):
Where no end group is shown, it is not given here.

Key:
[1] = test system: MDA-MB-231 cells (CD44+ human breast adenocarcinoma cells); test: Chemotactic chamber (Boyden) assay, migration through polycarbonate filters; type: cell-based; conditions: for MI buffer / MI: Table 4; for MI buffer: cells migrating in response to peptide divided by cells migrating in response to buffer; for Migratory Index: Table 3, cells migrating in response to peptide/cells migration in response to LVLDPK; for mean number of migrating cells per six random high powered fields: Table 2; for MI: migratory index
Experimental: Each peak was then tested for mediation of chemotaxis or for its ability to inhibit OPN mediated chemotaxis using the chemotactic assay as follows (see e.g., Weber et al. (1996) Science 271:509-512). Briefly, uncoated polycarbonated filters (pore size […] ) were used to separate the upper and lower chambers of chemotactic wells. 1×10^3 MDA-MB-231 cells (CD44^+human breast adenocarcinoma cells) were added to the upper chamber and incubated in the presence or absence of the indicated 50 pmols peptide. After 4 hours, the filters were removed, fixed in methanol arid stained with hematoxylin and eosin. Cells which have responded to the peptide, migrate to various areas of the lower surface and can be counted microscopically. Each data point is reported as the mean number of migrating cells per random high power field.
Peptide 51 was identified as being chemotactic. The peptide was sequenced using a gas-phase sequenator and determined to have the sequence LVLDPK (SEQ ID NO:1). To confirm that chemotaxis was due to this peptide, a 16 amino acid peptide spanning the chemotactic sequence in OPN was synthesized and tested for its chemotactic properties. The resulting peptide, SP64 has the sequence KFHSHKDKLVLDPKSK (SEQ ID NO:2) and containing the chemotactic sequence from residues 9-14. 2×10^4 MDA-MB-231 cells were assayed for chemotactic response to the indicated peptides as described above. Each data point is reported as the mean number of migrating cells per six random high powered fields ± standard error of the mean. Each experiment was repeated four times.
To test the amino acid specificity for chemotactic response several substitutions were created in the chemotactic sequence and the new peptides tested for their ability to induce chemotaxis. Data are expressed as migratory index (cells migrating in response to peptide/cells migration in response to LVLDPK, SEQ ID NO:1).
(§1) To evaluate the potential of peptide analogues to inhibit OPN induced chemotaxis, 100 nmoles of peptide was added to the lower compartment and the response of these cells to OPN was determined as described. MI(buffer) was calculated by dividing the number of cells migrating in response to peptide by the number of cells migrating in response to buffer. MI(inhibitory) equals the number of cells migrating towards OPN in the presence of buffer divided by the number migrating towards OPN in the presence of peptide.

MDA-MB-231 cells = test: Inhibition of OPN induced chemotaxis in the chemotactic chamber assay; type: cell-based, human; conditions: for MI inhibitory: Table 4, 100 nmoles of peptide, cells migrating towards OPN in presence of buffer divided by number migrating towards OPN in presence of peptide
Experimental: as §1

[2] = test system: cells recruited into the peritoneum; test: In vivo chemotaxis after injection of peptide into the peritoneal cavity, lavage and flow cytometry; design: species or system C57 black mice; conditions: 25 nmols i.p., 6 hours, normalized to PBS-injected mouse, average of 6 mice
Experimental: Since the peptide LVLDPK (SEQ ID NO:1) was chemotactic to tumor cells and macrophages in vitro, we tested whether the peptide was chemotactic in vivo. 25 nmols of the peptide were injected into the peritoneal cavity of C57 black mice. After six hours the cells recruited into the peritoneum were recovered by lavage and identified by flow cytometry. Titration of soluble peptides into the peritoneum induces a cellular infiltrate in a dose dependent manner. The induction ratio is the number of cells of a particular lineage recovered from the peritoneum of a peptide-injected mouse (e.g., 6 hours after injection) normalized for each experiment to the number of cells of the same lineage recovered from the peritoneum of a PBS-injected mouse. Cell numbers for PBS-injected mice ranged from […] to 646,000 cells total; 182,300 to 325,000 CD44^+ cells; 224,000 to 496,000 […] cells; 31,300 to 76,000 B220^+ cells; 18,100 to 21,100 CD3^+ cells), representing the induction of macrophages (Mac-1^+), B cells (B220^+), and T cells (CD3^+). Values represent an average of 6 mice.

Substance | MI buffer [1] | MI inhibitory (MDA-MB-231 cells) | chemotactic activity (in words) [1] | Migratory Index [1] | MI [1] | also measured
Acetyl-LVLDP (Ac-LVLDP) [pepK″] | 1 | 4 |  |  |  | 
ILVDPK (OTHER INFORMATION: Description of Artificial Sequence:Synthetic Peptide) |  |  | chemotactic activity |  |  | 
ILVVDPK (OTHER INFORMATION: Description of Artificial Sequence:Synthetic Peptide) [pepK′] |  |  |  | 1.0 |  | 
KFHSHKDKLVLDPKSK (OTHER INFORMATION: Description of Artificial Sequence:Synthetic Peptide) [SP64] | 12 | 9 |  | 1 | 1 | mean number of migrating cells per six random high powered fields ([1]; labelled agent in lower chamber, Ab64 in upper chamber): 25 cells per six random high powered fields; mean number of migrating cells per six random high powered fields ([1]; labelled agent in lower chamber, OPN in upper chamber): 66 cells per six random high powered fields; mean number of migrating cells per six random high powered fields ([1]; labelled agent in lower chamber, PBS in upper chamber, 2×10^4 cells): 217 cells per six random high powered fields; mean number of migrating cells per six random high powered fields ([1]; labelled agent in lower chamber, SP64 in upper chamber): 66 cells per six random high powered fields; mean number of migrating cells per six random high powered fields ([1]; labelled agent in lower chamber, pep 51 in upper chamber): 97 cells per six random high powered fields; mean number of migrating cells per six random high powered fields ([1]; labelled agent in upper chamber, PBS in lower chamber): 243 cells per six random high powered fields; chemotactic response of MDA-MB231 (in words) ([1]; p<0.01, 200 ng of bone OPN): stimulated the chemotactic response
LELDPK (OTHER INFORMATION: Description of Artificial Sequence:Synthetic Peptide) [pepH] | 2 | 10 |  | 0.3 | 0.3 | 
LLVDPK (OTHER INFORMATION: Description of Artificial Sequence:Synthetic Peptide) |  |  | chemotactic activity |  |  | 
LVIDPK (OTHER INFORMATION: Description of Artificial Sequence:Synthetic Peptide) [pepD] | 11 | 9 |  | 1 | 1 | 
LVLAPK (OTHER INFORMATION: Description of Artificial Sequence:Synthetic Peptide) [pepI] | 1 | 9 |  | 0.1 | 0.1 | 
LVLDEK (OTHER INFORMATION: Description of Artificial Sequence:Synthetic Peptide) [pepE] | 2 | 10 |  | 0.2 | 0.2 | 
LVLDP (OTHER INFORMATION: Description of Artificial Sequence:Synthetic Peptide) [pepG] | 0 | 4 |  | 0.1 | 0.1 | inhibition of chemotaxis by peptide (in words) (MDA-MB-231 cells; migratory index against peptide 51): inhibits chemotaxis
LVLDPA (OTHER INFORMATION: Description of Artificial Sequence:Synthetic Peptide) [pepK] |  |  |  | 0.1 |  | 
LVLEPK (OTHER INFORMATION: Description of Artificial Sequence:Synthetic Peptide) [pepJ] | 6 | 9 |  | 0.6 | 0.6 | 
LVLVPK (OTHER INFORMATION: Description of Artificial Sequence:Synthetic Peptide) [pepA] |  |  |  | 0.2 |  | induction ratio, Total [2]: 1.3; induction ratio, Total CD44 [2]: 1.8; induction ratio, B-lymphocytes ([2]; B220+): 1; induction ratio, T-lymphocytes ([2]; CD3+): 1.1; induction ratio, Monocytes ([2]; Mac-1+): 1.2
VDPK (OTHER INFORMATION: Description of Artificial Sequence:Synthetic Peptide) |  |  | retain chemotactic activity |  |  | 
VLDSK (OTHER INFORMATION: Description of Artificial Sequence:Synthetic Peptide) |  |  | retain chemotactic activity |  |  | 
VVLDPK (OTHER INFORMATION: Description of Artificial Sequence:Synthetic Peptide) |  |  | chemotactic activity |  |  | 
